# PubChem BioAssay (NCI)
#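 Protocol summary: plate cells (96-well), add compound at 5 concentrations, incubate 48 h, interpolate endpoints linearly. Abbreviation: GI50, concentration required for 50% inhibition of growth. TGI: total growth inhibition.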
# Legend:
# Test in all cases: NCI tumour cell line growth inhibition, 48 h
# 786-0 renal = system: 786-0 renal
# ACHN renal = system: ACHN renal
# COLO 205 colon = system: COLO 205 colon
# EKVX NSCLC = system: EKVX NSCLC
# LOX IMVI melanoma = system: LOX IMVI melanoma
# SF-295 CNS = system: SF-295 CNS
# SF-539 CNS = system: SF-539 CNS
# SK-MEL-2 melanoma = system: SK-MEL-2 melanoma
# SN12C renal = system: SN12C renal
# T-47D breast = system: T-47D breast
Compound,TGI (786-0 renal) [µM],TGI (ACHN renal) [µM],TGI (COLO 205 colon) [µM],TGI (EKVX NSCLC) [µM],TGI (LOX IMVI melanoma) [µM],TGI (SF-295 CNS) [µM],TGI (SF-539 CNS) [µM],TGI (SK-MEL-2 melanoma) [µM],TGI (SN12C renal) [µM],TGI (T-47D breast) [µM],GI50 (ACHN renal) [µM],GI50 (COLO 205 colon) [µM],GI50 (EKVX NSCLC) [µM],GI50 (LOX IMVI melanoma) [µM],GI50 (SF-295 CNS) [µM],GI50 (SF-539 CNS) [µM],GI50 (SK-MEL-2 melanoma) [µM],GI50 (SN12C renal) [µM],GI50 (T-47D breast) [µM]
CNC1Cc2c[nH]c3cccc(c23)C12C=C(C)C(=O)O2 (stereo not given),> 100,> 100,> 100,> 100,> 100,> 100,> 100,> 100,> 100,> 100,,,,,,,,,
Cc1cc2c(c(O)c1-c1c(C)cc(O)c3c1C(=O)C=CC3=O)C(=O)C=CC2=O,,1.44,0.656,,4.21,33.1,31.7,62.1,7.59,3.67,,,,,,,,,
C[C@@H]1C(=O)O[C@H]1[C@H](O)CO,> 100,> 100,> 100,> 100,> 100,> 100,,> 100,> 100,> 100,,,,,,,,,
C[Si](C)(C)c1ccc(-c2c3ccc(-c4cc(Br)cc(Br)c4)nc3nc3nc(-c4cc(Br)cc(Br)c4)ccc23)cc1,> 100,> 100,> 100,> 100,,> 100,,> 100,> 100,> 100,,,,,,,,,
COc1cc(/C=C2\N=C(c3ccccc3)N(c3ccc(C(=O)c4ccccc4)cc3N3C(=O)/C(=C/c4ccc(O)c(OC)c4)N=C3c3ccccc3)C2=O)ccc1O,61.2,57.2,32.3,76.4,37.1,28.8,17.2,29.9,62.7,27.3,,,,,,,,,
O=C1c2cccnc2C(=O)c2c1c(C(=O)OCCN1CCCCC1)c1ccccn21,,0.0534,0.169,7.52,0.095,0.2,0.155,0.224,0.479,7.4,0.0129,0.0481,0.851,0.0172,0.0311,0.0174,0.0909,0.0138,0.515
C=C1C(=O)O[C@@H]2/C=C(\C)CC/C=C(\C)CC[C@@]12O,2.71,3.36,4.3,12.1,5.23,25.2,3.39,25.7,7.91,3.33,,,,,,,,,
CCCCCCCCCCCCCC1=C(O)C(=O)C(CC2=C(O)C(=O)C(CCCCCCCCCCCCC)=C(O)C2=O)=C(O)C1=O,> 100,> 100,> 100,> 100,> 100,> 100,> 100,> 100,> 100,> 100,,,,,,,,,
CC(=O)O[C@H]1CC[C@H]2[C@@H]3CCC4=CC(=O)C=C[C@]4(O)[C@H]3CC[C@]12C,> 100,> 100,> 55.6,> 80.7,> 54.4,> 100,> 100,> 73.4,> 100,> 100,,,,,,,,,
CC(C)(C)c1ccc2c(c1)C#Cc1cc(C(C)(C)C)ccc1OCCCO2,> 100,> 100,> 100,> 100,> 100,> 100,,> 100,> 100,> 100,,,,,,,,,
CC(=O)Nc1cccc(N2C(=O)/C(=C\c3cccc(Oc4ccccc4)c3)S(=O)(=O)C2c2ccccc2)c1 (stereo not given),> 100,> 100,> 100,> 100,> 100,> 100,> 100,> 100,> 100,> 100,,,,,,,,,
CCCCCCCCCCCCCCCCCCNc1ccn(C2OC(CO)C(OP(=O)(O)OCC(O)COP(=O)(O)OCC3OC(n4cc(F)c(NCCCCCCCCCCCCCCCCCC)nc4=O)CC3O)C2O)c(=O)n1 (stereo not given),> 50,> 50,> 50,> 50,> 50,> 50,> 50,> 50,> 50,> 50,,,,,,,,,
Nc1ccc(O)c2c1C(=O)c1c(N)ccc(O)c1C2=O,> 100,> 100,> 100,> 100,> 100,> 100,> 100,> 100,> 100,,,,,,,,,,
CN(Cc1cn(O)c2nc(=N)nc(N)c-2n1)c1ccc(C(=O)NC23CC4CC(CC(C4)C2)C3)cc1,> 100,> 100,> 100,> 100,> 100,> 100,,> 100,> 100,> 100,,,,,,,,,
CC(C)(C)OC(=O)N1C(OP(=O)(Oc2ccccc2)Oc2ccccc2)=CSc2ccccc21,> 100,> 100,49.6,> 100,> 100,> 100,> 100,43.7,> 100,> 100,,,,,,,,,
CCOC(=O)C1(C/C=C/CCl)CCCC1=O (stereo not given),49.4,36.6,72.9,37.9,30.4,> 100,40.6,59,59.1,51.3,,,,,,,,,
S=c1c2[nH]cnc2ncn1CCSC1=NC=NC2=NC=NC21 (stereo not given),> 100,> 100,> 100,> 100,> 100,> 100,> 100,> 100,> 100,> 100,,,,,,,,,
